# Experiments:
# [1] = system: HCT-116; test: Growth inhibition of human HCT116 cells incubated for 48 hrs by sulforhodamine B assay; type: functional; conditions: HCT-116, 48 h
# [2] = system: LOX IMVI; test: Growth inhibition of human LOXIMVI cells assessed as cell growth at 10^-7 M incubated for 48 hrs by sulforhodamine B assay relative to control; type: functional; conditions: read-out: Activity
# [3] = biological target: Histone deacetylase 3 (Homo sapiens, UniProt O15379); test: Inhibition of HDAC3 (unknown origin) by ELISA
# Chain of Histone deacetylase 3 (O15379 whole entry): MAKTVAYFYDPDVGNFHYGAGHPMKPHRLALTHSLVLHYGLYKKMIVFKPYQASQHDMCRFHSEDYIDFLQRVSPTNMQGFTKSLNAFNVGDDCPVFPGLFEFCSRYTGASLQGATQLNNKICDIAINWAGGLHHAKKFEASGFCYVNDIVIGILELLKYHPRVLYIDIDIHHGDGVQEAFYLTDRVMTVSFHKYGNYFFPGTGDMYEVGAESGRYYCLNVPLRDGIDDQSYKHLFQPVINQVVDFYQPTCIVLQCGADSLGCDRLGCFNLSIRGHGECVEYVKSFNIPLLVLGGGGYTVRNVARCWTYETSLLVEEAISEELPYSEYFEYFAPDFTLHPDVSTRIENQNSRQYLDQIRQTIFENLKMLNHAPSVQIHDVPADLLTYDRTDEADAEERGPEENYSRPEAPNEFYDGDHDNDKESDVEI
# [4] = system: CCRF-CEM; test: Growth inhibition of human CCRF-CEM cells assessed as cell growth at 10^-7 M incubated for 48 hrs by sulforhodamine B assay relative to control; type: functional; conditions: read-out: Activity
# [5] = system: ACHN; test: Growth inhibition of human ACHN cells assessed as cell growth at 10^-7 M incubated for 48 hrs by sulforhodamine B assay relative to control; type: functional; conditions: read-out: Activity
# [6] = system: OVCAR-5; test: Growth inhibition of human OVCAR5 cells assessed as cell growth at 10^-4 M incubated for 48 hrs by sulforhodamine B assay relative to control; type: functional; conditions: OVCAR-5, 48 h, read-out: Activity
# [7] = system: UO-31; test: Growth inhibition of human UO31 cells assessed as cell growth at 10^-8 M incubated for 48 hrs by sulforhodamine B assay relative to control; type: functional; conditions: UO-31, 48 h, read-out: Activity
# [8] = system: KM12; test: Growth inhibition of human KM12 cells assessed as cell growth at 10^-6 M incubated for 48 hrs by sulforhodamine B assay relative to control; type: functional; conditions: KM12, 48 h, read-out: Activity
# [9] = system: NCI-H322M; test: Growth inhibition of human NCI-H322M cells assessed as cell growth at 10^-7 M incubated for 48 hrs by sulforhodamine B assay relative to control; type: functional; conditions: read-out: Activity
# [10] = system: CAKI-1; test: Growth inhibition of human Caki1 cells incubated for 48 hrs by sulforhodamine B assay; type: functional; conditions: CAKI-1, 48 h
# [11] = system: HL-60; test: Downregulation of HDAC2 mRNA expression in human HL60 cells by qRT-PCR method relative to control; type: functional
# [12] = system: CAKI-1; test: Growth inhibition of human Caki1 cells assessed as cell growth at 10^-6 M incubated for 48 hrs by sulforhodamine B assay relative to control; type: functional; conditions: CAKI-1, 48 h, read-out: Activity
# [13] = system: SR; test: Growth inhibition of human SR cells assessed as cell growth at 10^-7 M incubated for 48 hrs by sulforhodamine B assay relative to control; type: functional; conditions: read-out: Activity
# [14] = system: ACHN; test: Growth inhibition of human ACHN cells assessed as cell growth at 10^-6 M incubated for 48 hrs by sulforhodamine B assay relative to control; type: functional; conditions: read-out: Activity
# [15] = system: K562; test: Growth inhibition of human K562 cells assessed as cell growth at 10^-7 M incubated for 48 hrs by sulforhodamine B assay relative to control; type: functional; conditions: K562, 48 h, read-out: Activity
# [16] = system: NCI-H460; test: Growth inhibition of human NCI-H460 cells incubated for 48 hrs by sulforhodamine B assay; type: functional; conditions: NCI-H460, 48 h
# [17] = system: UO-31; test: Growth inhibition of human UO31 cells incubated for 48 hrs by sulforhodamine B assay; type: functional; conditions: UO-31, 48 h
# [18] = system: SK-MEL-2; test: Growth inhibition of human SK-MEL-2 cells assessed as cell growth at 10^-6 M incubated for 48 hrs by sulforhodamine B assay relative to control; type: functional; conditions: SK-MEL-2, 48 h, read-out: Activity
# [19] = system: A498; test: Growth inhibition of human A498 cells incubated for 48 hrs by sulforhodamine B assay; type: functional; conditions: A498, 48 h
# [20] = system: SK-MEL-28; test: Growth inhibition of human SK-MEL-28 cells assessed as cell growth at 10^-7 M incubated for 48 hrs by sulforhodamine B assay relative to control; type: functional; conditions: SK-MEL-28, 48 h, read-out: Activity
# [21] = system: NCI-H23; test: Growth inhibition of human NCI-H23 cells assessed as cell growth at 10^-7 M incubated for 48 hrs by sulforhodamine B assay relative to control; type: functional; conditions: NCI-H23, 48 h, read-out: Activity
# [22] = system: CAKI-1; test: Growth inhibition of human Caki1 cells assessed as cell growth at 10^-8 M incubated for 48 hrs by sulforhodamine B assay relative to control; type: functional; conditions: CAKI-1, 48 h, read-out: Activity
# [23] = system: LOX IMVI; test: Growth inhibition of human LOXIMVI cells incubated for 48 hrs by sulforhodamine B assay; type: functional
# [24] = system: SR; test: Growth inhibition of human SR cells assessed as cell growth at 10^-8 M incubated for 48 hrs by sulforhodamine B assay relative to control; type: functional; conditions: read-out: Activity
# [25] = system: MDA-MB-435; test: Cell cycle arrest in human MDA-MB-435 cells assessed as accumulation at G1-phase by propidium iodide staining based flow cytometry (reference value: 69.15%); type: functional
# [26] = system: M14; test: Growth inhibition of human M14 cells assessed as cell growth at 10^-5 M incubated for 48 hrs by sulforhodamine B assay relative to control; type: functional; conditions: M14, 48 h, read-out: Activity
# [27] = system: A549; test: Growth inhibition of human A549/ATCC cells assessed as cell growth at 10^-5 M incubated for 48 hrs by sulforhodamine B assay relative to control; type: functional; conditions: A549, 48 h, read-out: Activity
# [28] = system: MDA-MB-468; test: Growth inhibition of human MDA-MB-468 cells assessed as cell growth at 10^-8 M incubated for 48 hrs by sulforhodamine B assay relative to control; type: functional; conditions: MDA-MB-468, 48 h, read-out: Activity
# [29] = system: UACC-62; test: Growth inhibition of human UACC62 cells assessed as cell growth at 10^-7 M incubated for 48 hrs by sulforhodamine B assay relative to control; type: functional; conditions: UACC-62, 48 h, read-out: Activity
# [30] = system: HCT-15; test: Growth inhibition of human HCT15 cells assessed as cell growth at 10^-7 M incubated for 48 hrs by sulforhodamine B assay relative to control; type: functional; conditions: HCT-15, 48 h, read-out: Activity
# [31] = system: KM12; test: Growth inhibition of human KM12 cells assessed as cell growth at 10^-8 M incubated for 48 hrs by sulforhodamine B assay relative to control; type: functional; conditions: KM12, 48 h, read-out: Activity
# [32] = read-out: LC50 (the source's name)
# [33] = read-out: pLC50 (the source's name) (converted)
compound,measurement,setting,value
CCS/C(Nc1ccccc1)=C(\C#N)C(=O)N/N=C\c1ccc(Cl)cc1Cl,GI50,[1]; read-out: GI50,2.99 µM
same,CC50,[1]; [32],> 100 µM
same,TGI,[1]; read-out: TGI,> 100 µM
same,GI50,[1]; read-out: pGI50 (converted),3.02 µM
same,CC50,[1]; [33],> 100 µM
same,TGI,[1]; read-out: pTGI (converted),> 100 µM
same,growth at 0.1 µM,[2],96%
same,IC50,[3],0.032 µM
same,growth at 0.1 µM,[4],95%
same,growth at 0.1 µM,[5],98%
same,growth at 100 µM,[6],38%
same,growth at 0.01 µM,[7],94%
same,growth at 1 µM,[8],90%
same,growth at 0.1 µM,[9],91%
same,GI50,[10]; read-out: GI50,2.39 µM
same,CC50,[10]; [32],> 100 µM
same,TGI,[10]; read-out: TGI,> 100 µM
same,GI50,[10]; read-out: pGI50 (converted),2.4 µM
same,CC50,[10]; [33],> 100 µM
same,TGI,[10]; read-out: pTGI,> 100 µM
same,fold change (FC),[11],<=10
same,growth at 1 µM,[12],67%
same,growth at 0.1 µM,[13],80%
same,growth at 1 µM,[14],92%
same,growth at 0.1 µM,[15],90%
same,GI50,[16]; read-out: GI50,3.16 µM
same,LC50,[16]; read-out: LC50,> 100 µM
same,TGI,[16]; read-out: TGI,> 100 µM
same,GI50,[16]; read-out: pGI50 (converted),3.16 µM
same,LC50,[16]; read-out: pLC50 (converted),> 100 µM
same,TGI,[16]; read-out: pTGI (converted),> 100 µM
same,GI50,[17]; read-out: GI50,6.91 µM
same,CC50,[17]; [32],> 100 µM
same,TGI,[17]; read-out: TGI,> 100 µM
same,GI50,[17]; read-out: pGI50 (converted),6.92 µM
same,CC50,[17]; [33],> 100 µM
same,TGI,[17]; read-out: pTGI,> 100 µM
same,growth at 1 µM,[18],86%
same,GI50,[19]; read-out: GI50,1.87 µM
same,CC50,[19]; [32],> 100 µM
same,TGI,[19]; read-out: TGI,37.8 µM
same,GI50,[19]; read-out: pGI50 (converted),1.86 µM
same,CC50,[19]; [33],> 100 µM
same,TGI,[19]; read-out: pTGI (converted),38 µM
same,growth at 0.1 µM,[20],95%
same,growth at 0.1 µM,[21],97%
same,growth at 0.01 µM,[22],94%
same,GI50,[23]; read-out: GI50,5.88 µM
same,CC50,[23]; [32],> 100 µM
same,TGI,[23]; read-out: TGI,> 100 µM
same,GI50,[23]; read-out: pGI50 (converted),5.89 µM
same,CC50,[23]; [33],> 100 µM
same,TGI,[23]; read-out: pTGI,> 100 µM
same,growth at 0.01 µM,[24],91%
same,Activity,[25],61.56%
same,growth at 10 µM,[26],-1%
same,growth at 10 µM,[27],29%
same,growth at 0.01 µM,[28],108%
same,growth at 0.1 µM,[29],91%
same,growth at 0.1 µM,[30],87%
same,growth at 0.01 µM,[31],101%
